Structures can show the parent of a compound that is named as a salt.
Experiments:
[1] = biological target: αvβ1 (Homo sapiens, UniProt P05556+P06756); assay: Solid Phase Integrin αvβ1 Assay; assay type: binding
Procedure: (§1) The compounds exemplified in this document were tested for their ability to inhibit αvβ1 and αvβ6 in below described solid phase integrin assays.
Solid Phase Integrin αvβ1 Assay
96-well microtiter plates (4 HBX Immulon; Thermo Fisher Scientific, Waltham, MA) were coated with 100 μL/well of 1 μg/mL recombinant TGFb1-LAP in TBS at 4° C., overnight. The coating solution was removed, and plates were blocked with 200 μL/well of blocking and binding buffer (2% BSA/TBST, 1 mM MnCl2) at room temperature for 1 hr. Blocking buffer was removed and 50 μL of binding buffer and testing compounds were added. 50 μL of diluted αvβ1 (0.2 ug/mL in binding buffer) was added to wells (100 μL/well total) for and plates incubated for 90 min at room temperature. Wells were washed thrice with washing buffer (TBS, 0.05% Tween, 1 mM MnCl2) and plates were incubated with 100 μL/well of a 1:12500 dilution of streptavidin-horseradish peroxidase conjugate (Thermo Fisher Scientific) in binding buffer for 20 min at room temperature. Bound protein was detected using the substrate TMB. The IC50 values for testing compounds were calculated by Levenberg-Marquardt four parameter fitting logistics.

[2] = biological target: αvβ6 (Homo sapiens, UniProt P06756+P18564); assay: Solid Phase Integrin αvβ6 Assay; assay type: binding
Procedure: as §1
Solid Phase Integrin αvβ6 Assay
96-well microtiter plates (4 HBX Immulon; Thermo Fisher Scientific, Waltham, MA) were coated with 100 μL/well of 1 μg/mL recombinant TGFb1-LAP in TBS at 4° C., overnight. The coating solution was removed, and plates were blocked with 200 μL/well of blocking and binding buffer (2% BSA/TBST, 1 mM MnCl2) at room temperature for 1 hr. Blocking buffer was removed and 50 uL of binding buffer and testing compounds were added. 50 μL of diluted αvβ6 (0.2 μg/mL in binding buffer) was added to wells (100 uL/well total) and plates incubated for 1 hr at room temperature. Wells were washed thrice with washing buffer (TBS, 0.05% Tween, 1 mM MnCl2) and plates were incubated with 100 μL/well of a 1:12500) dilution of streptavidin-horseradish peroxidase conjugate (Thermo Fisher Scientific) in binding buffer for 20 min at room temperature. Bound protein was detected using the substrate TMB. The IC50 values for testing compounds were calculated by Levenberg-Marquardt four parameter fitting logistics.

Sequence of αvβ1 (P06756 31-992 limits assumed): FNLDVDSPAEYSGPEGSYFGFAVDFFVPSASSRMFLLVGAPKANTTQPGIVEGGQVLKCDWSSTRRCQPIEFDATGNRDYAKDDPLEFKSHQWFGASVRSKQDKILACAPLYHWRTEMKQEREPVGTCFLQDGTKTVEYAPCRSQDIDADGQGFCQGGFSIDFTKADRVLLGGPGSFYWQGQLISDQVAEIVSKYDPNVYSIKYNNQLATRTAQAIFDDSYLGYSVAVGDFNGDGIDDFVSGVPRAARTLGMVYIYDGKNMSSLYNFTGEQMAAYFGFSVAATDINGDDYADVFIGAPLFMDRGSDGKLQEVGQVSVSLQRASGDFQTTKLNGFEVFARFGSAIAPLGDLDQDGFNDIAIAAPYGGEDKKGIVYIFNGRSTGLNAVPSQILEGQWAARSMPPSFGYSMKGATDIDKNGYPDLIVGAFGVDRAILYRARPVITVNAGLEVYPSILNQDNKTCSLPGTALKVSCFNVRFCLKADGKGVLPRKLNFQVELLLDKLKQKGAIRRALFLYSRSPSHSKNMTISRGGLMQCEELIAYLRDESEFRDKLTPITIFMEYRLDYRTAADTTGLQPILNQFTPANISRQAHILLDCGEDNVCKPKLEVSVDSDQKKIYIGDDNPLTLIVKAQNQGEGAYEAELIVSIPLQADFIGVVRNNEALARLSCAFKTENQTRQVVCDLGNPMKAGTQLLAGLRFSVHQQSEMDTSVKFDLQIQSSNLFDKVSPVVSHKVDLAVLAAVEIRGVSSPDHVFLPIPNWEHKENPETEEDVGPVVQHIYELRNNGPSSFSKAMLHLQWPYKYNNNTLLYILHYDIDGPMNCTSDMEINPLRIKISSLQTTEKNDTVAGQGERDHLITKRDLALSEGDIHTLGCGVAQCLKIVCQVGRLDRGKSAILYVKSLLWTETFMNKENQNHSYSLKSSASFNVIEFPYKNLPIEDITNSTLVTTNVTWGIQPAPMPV
Sequence of αvβ1 (P05556 21-728 limits assumed): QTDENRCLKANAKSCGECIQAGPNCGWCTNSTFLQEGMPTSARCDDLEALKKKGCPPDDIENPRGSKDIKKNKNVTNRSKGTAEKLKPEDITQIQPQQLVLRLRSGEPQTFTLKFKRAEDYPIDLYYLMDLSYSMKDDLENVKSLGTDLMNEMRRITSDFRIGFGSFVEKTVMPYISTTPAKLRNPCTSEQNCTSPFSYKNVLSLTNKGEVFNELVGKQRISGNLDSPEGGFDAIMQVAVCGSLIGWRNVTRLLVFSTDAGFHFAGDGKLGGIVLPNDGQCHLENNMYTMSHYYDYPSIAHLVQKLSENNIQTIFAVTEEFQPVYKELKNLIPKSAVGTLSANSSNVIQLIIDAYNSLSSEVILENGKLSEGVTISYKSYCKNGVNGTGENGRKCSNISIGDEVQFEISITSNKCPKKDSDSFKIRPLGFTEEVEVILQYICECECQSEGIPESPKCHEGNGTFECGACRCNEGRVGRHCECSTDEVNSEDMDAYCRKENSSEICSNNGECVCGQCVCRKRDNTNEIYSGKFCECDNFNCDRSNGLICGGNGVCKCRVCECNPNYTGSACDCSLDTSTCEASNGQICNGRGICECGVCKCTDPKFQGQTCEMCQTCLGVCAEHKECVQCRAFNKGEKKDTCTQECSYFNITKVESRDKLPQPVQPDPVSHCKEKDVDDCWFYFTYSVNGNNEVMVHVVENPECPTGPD
Sequence of αvβ6 (P06756 31-992 limits assumed): as the sequence (P06756 31-992 limits assumed) above
Sequence of αvβ6 (P18564 22-707 limits assumed): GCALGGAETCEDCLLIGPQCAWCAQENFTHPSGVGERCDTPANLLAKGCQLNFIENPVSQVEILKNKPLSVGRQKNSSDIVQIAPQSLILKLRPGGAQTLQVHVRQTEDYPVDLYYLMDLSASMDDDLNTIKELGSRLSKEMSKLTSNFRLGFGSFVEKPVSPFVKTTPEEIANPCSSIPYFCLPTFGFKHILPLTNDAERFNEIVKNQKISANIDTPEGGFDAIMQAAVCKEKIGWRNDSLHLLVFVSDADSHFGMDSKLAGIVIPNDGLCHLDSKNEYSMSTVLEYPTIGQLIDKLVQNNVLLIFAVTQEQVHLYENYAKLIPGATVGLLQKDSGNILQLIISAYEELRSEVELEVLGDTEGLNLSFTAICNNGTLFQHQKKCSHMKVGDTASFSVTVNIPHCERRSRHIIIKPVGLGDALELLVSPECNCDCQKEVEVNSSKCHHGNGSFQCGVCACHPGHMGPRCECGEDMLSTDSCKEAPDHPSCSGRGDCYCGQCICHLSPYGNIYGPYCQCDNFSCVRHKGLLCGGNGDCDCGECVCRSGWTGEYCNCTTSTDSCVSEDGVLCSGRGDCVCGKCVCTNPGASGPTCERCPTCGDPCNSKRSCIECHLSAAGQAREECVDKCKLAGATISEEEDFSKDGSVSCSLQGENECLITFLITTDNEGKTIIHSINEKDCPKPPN

| SMILES | IC50 [1] [nM] | IC50 [2] [nM] |
| --- | --- | --- |
| O=C(NC[C@@H](C(=O)O)c1cccc(Br)c1)[C@@H]1CCCN(CCCc2ccc3c(n2)NCCC3)C1 [Compound 302] | < 100 | < 100 |
| CNC(=O)c1cccc(CNC(=O)[C@@H]2CCCC[C@H]2C(=O)N[C@@H](CNC(=O)[C@@H]2CCCN(CCCc3ccc4c(n3)NCCC4)C2)C(=O)O)c1 [Compound 266, (S)-2-((1R,2R)-2-((3-(methylcarbamoyl)benzyl)carbamoyl)cyclohexane-1-carboxamido)-3-((R)-1-(3-(5,6,7,8-tetrahydro-1,8-naphthyridin-2-yl)propyl)piperidine-3-carboxamido)propanoic acid] | < 100 | < 100 |
| O=C(CC[C@H](NC(=O)C12CCC(CC1)CC2)C(=O)O)N[C@H]1CCN(C(=O)CCCc2ccc3c(n2)NCCC3)C1 [Compound 432] | < 100 | < 100 |
| O=C(NC[C@@H](C(=O)O)c1cncc(-c2ccccc2)c1)[C@@H]1CCCN(CCCc2ccc3c(n2)NCCC3)C1 [Compound 627] | < 100 | < 100 |
| C[C@@H]1OCCN(c2cccc([C@H](CC(=O)O)NC(=O)[C@@H]3CCCN(CCCc4ccc5c(n4)NCCC5)C3)c2)[C@H]1C [Compound 584] | < 100 | < 100 |
| O=C(O)[C@H](CCO[C@@H]1CCCN(CCc2ccc3c(n2)NCCC3)C1)Nc1ncnc2ccccc12 [Compound 386] | > 1000 | > 1000 |
| O=C(NC1([C@@H](C(=O)O)c2cccc(-c3ccccc3)c2)CC1)[C@@H]1CCCN(CCCc2ccc3c(n2)NCCC3)C1 [Compound 301-B, 2-([1,1′-biphenyl]-3-yl)-2-(1-((R)-1-(3-(5,6,7,8-tetrahydro-1,8-naphthyridin-2-yl)propyl)piperidine-3-carboxamido)cyclopropyl)acetic acid] | > 1000 | > 1000 |
| O=C(O)C[C@H](NC(=O)[C@@H]1CCCN(CCCc2ccc3c(n2)NCCC3)C1)c1cccc(N2CC3CCC2CO3)c1 (single isomer, unassigned) [Compound 241-B] | < 100 | < 100 |
| Cc1c[s+]([O-])c2ncnc(N[C@H](CCO[C@@H]3CCCN(CCCc4ccc5c(n4)NCCC5)C3)C(=O)O)c12 (stereo partly shown) [Compound 510] | > 1000 | > 1000 |
| O=C(NC[C@H](Nc1cncc(-c2ccccc2)c1)C(=O)O)[C@@H]1CCCN(CCCc2ccc3c(n2)NCCC3)C1 [Compound 361] | < 100 | < 100 |
| O=C(O)[C@H](CCO[C@@H]1CCCN(CCCc2ccc3c(n2)NCCC3)C1)Nc1ncnc2ccccc12 [Compound 334] | < 100 | < 100 |
| CC1(C)CN(c2cccc([C@@H](CO[C@@H]3CCCN(CCCc4ccc5c(n4)NCCC5)C3)CC(=O)O)c2)CCC1(F)F [Compound 652] | < 100 | < 100 |
| O=C(NC[C@@H](Nc1cccnc1C1CC(F)(F)C1)C(=O)O)[C@@H]1CCCN(CCCc2ccc3c(n2)NCCC3)C1 [Compound 593] | < 100 | < 100 |
| O=C(O)C[C@H](NC(=O)[C@@H]1CCCN(CCCc2ccc3c(n2)NCCC3)C1)c1cccc(C2CCCC2)c1 [Compound 231, (S)-3-(3-cyclopentylphenyl)-3-((R)-1-(3-(5,6,7,8-tetrahydro-1,8-naphthyridin-2-yl)propyl)piperidine-3-carboxamido)propanoic acid hydrochloride] | < 100 | < 100 |
| O=C(O)C[C@@H](NC(=O)[C@@H]1CCCN(CCCc2ccc3c(n2)NCCC3)C1)c1cc(F)cc(C2CC2)c1 [Compound 347] | < 100 | < 100 |
| O=C(N[C@@H](CNC(=O)[C@@H]1CCCN(CCCc2ccc3c(n2)NCCC3)C1)C(=O)O)C1CCOCC1 [Compound 311] | < 100 | < 100 |
| O=C(NC[C@H](C(=O)O)c1ccc2c(c1)CCCC2)[C@@H]1CCCN(CCCc2ccc3c(n2)NCCC3)C1 [Compound 248-A, 3-((R)-1-(3-(5,6,7,8-tetrahydro-1,8-naphthyridin-2-yl)propyl)piperidine-3-carboxamido)-2-(5,6,7,8-tetrahydronaphthalen-2-yl)propanoic acid] | 100 to 1000 | 100 to 1000 |
| O=C(NC[C@@H](C(=O)O)c1ccc(F)c(-c2ccccc2)c1)[C@@H]1CCCN(CCCc2ccc3c(n2)NCCC3)C1 [Compound 308] | 100 to 1000 | 100 to 1000 |

| SMILES | IC50 [1] [nM] | IC50 [2] [nM] |
| --- | --- | --- |
| O=C(O)C[C@@H](CO[C@@H]1CCCN(CCCc2ccc3c(n2)NCCC3)C1)c1ccc(-c2ccccc2)cc1 [Compound 459] | > 1000 | 100 to 1000 |
| O=C(O)C[C@@H](NC(=O)[C@@H]1CCCN(CCCc2ccc3c(n2)NCCC3)C1)c1cccc(Oc2ccccc2)c1 [Compound 209-B, 3-(3-phenoxyphenyl)-3-((R)-1-(3-(5,6,7,8-tetrahydro-1,8-naphthyridin-2-yl)propyl)piperidine-3-carboxamido)propanoic acid] | > 1000 | 100 to 1000 |
| O=C(NC[C@@H](C(=O)O)c1cnc2[nH]ccc2c1)[C@@H]1CCCN(CCCc2ccc3c(n2)NCCC3)C1 [Compound 324] | < 100 | > 1000 |
| O=C(NC[C@H](C(=O)O)c1cccc(-c2ccccc2C(F)(F)F)c1)[C@@H]1CCCN(CCCc2ccc3c(n2)NCCC3)C1 [Compound 621] | < 100 | < 100 |
| O=C(N[C@@H](CCO[C@@H]1CCCN(CCCc2ccc3c(n2)NCCC3)C1)C(=O)O)c1cc(Cl)cc(Cl)c1 [Compound 488] | < 100 | < 100 |
| CC1(C)COCCN1c1cccc([C@H](CC(=O)O)NC(=O)[C@@H]2CCCN(CCCc3ccc4c(n3)NCCC4)C2)c1 [Compound 235, (S)-3-(3-(3,3-dimethylmorpholino)phenyl)-3-((R)-1-(3-(5,6,7,8-tetrahydro-1,8-naphthyridin-2-yl)propyl)piperidine-3-carboxamido)propanoic acid] | < 100 | < 100 |
| O=C(O)[C@](O)(CO[C@@H]1CCCN(CCCCc2ccc3c(n2)NCCC3)C1)c1ccccc1 [Compound 455] | > 1000 | > 1000 |
| O=C(N[C@@H](CCO[C@@H]1CCCN(CCCc2ccc3c(n2)NCCC3)C1)C(=O)O)c1c(F)cc(N2CCOC[C@@H]2C(F)(F)F)cc1F [Compound 466] | < 100 | 100 to 1000 |
| O=C(O)CC(NC(=O)[C@@H]1CCCN(CCCc2ccc3c(n2)NCCC3)C1)c1cc(Cl)cc(C(F)(F)F)c1 (stereo partly drawn) [Compound 222, 3-(3-chloro-5-(trifluoromethyl)phenyl)-3-((R)-1-(3-(5,6,7,8-tetrahydro-1,8-naphthyridin-2-yl)propyl)piperidine-3-carboxamido)propanoic acid hydrochloride] | < 100 | < 100 |
| O=C(NC[C@H](C(=O)O)c1cccc2nn(CC3CC3)cc12)[C@@H]1CCCN(CCCc2ccc3c(n2)NCCC3)C1 [Compound 317] | < 100 | < 100 |
| O=C(O)CC(NC(=O)[C@@H]1CCCN(CCCc2ccc3c(n2)NCCC3)C1)c1cccc2c1CCO2 (stereo partly drawn) [Compound 219, 3-(2,3-dihydrobenzofuran-4-yl)-3-((R)-1-(3-(5,6,7,8-tetrahydro-1,8-naphthyridin-2-yl)propyl)piperidine-3-carboxamido)propanoic acid hydrochloride] | < 100 | < 100 |
| O=C(NC[C@H](C(=O)O)c1ccc(F)c(-c2ccccc2)c1)[C@@H]1CCCN(CCCc2ccc3c(n2)NCCC3)C1 [Compound 309] | < 100 | < 100 |
| O=C(NC[C@H](C(=O)O)c1cncc(-c2ccccc2)c1)[C@@H]1CCCN(CCCc2ccc3c(n2)NCCC3)C1 [Compound 620] | < 100 | < 100 |
| CC(C)(C)OC(=O)N[C@@H](CNC(=O)[C@@H]1CCCN(CCCc2ccc3c(n2)NCCC3)C1)C(=O)O [Compound 265, (S)-2-((tert-butoxycarbonyl)amino)-3-((R)-1-(3-(5,6,7,8-tetrahydro-1,8-naphthyridin-2-yl)propyl)piperidine-3-carboxamido)propanoic acid] | < 100 | < 100 |
| O=C(O)C[C@@H](NC(=O)[C@@H]1CCCN(CCCc2ccc3c(n2)NCCC3)C1)c1cccc(C(F)(F)F)c1 (single isomer, unassigned) [Compound 203-B, hydrochloride] | < 100 | < 100 |
| O=C(O)C[C@@H](NC(=O)[C@@H]1CCCN(CCCc2ccc3c(n2)NCCC3)C1)c1ccc2ccccc2c1 [Compound 206, (R)-3-(naphthalen-2-yl)-3-((R)-1-(3-(5,6,7,8-tetrahydro-1,8-naphthyridin-2-yl)propyl)piperidine-3-carboxamido)propanoic acid hydrochloride] | < 100 | < 100 |
| O=C(O)[C@@H](CO[C@@H]1CCCN(Cc2ccc3c(n2)NCCC3)C1)Nc1ncnc2ccccc12 [Compound 411] | > 1000 | > 1000 |

From US20240208968A1, “ALPHA V BETA 6 AND ALPHA V BETA 1 INTEGRIN INHIBITORS AND USES THEREOF” (DiCE Molecules SV, Inc., priority 2021, published 2024)
